The test system of experiment [1] is ovalbumin (OVA)-induced asthma. Nature of the experiment: Mouse model of ovalbumin (OVA)-induced asthma, eosinophil infiltrate in BALF. It counts as in vivo. To be noted: three oral doses of 10 mg/kg at 48 h, 24 h, and 1 h prior to assessment; p<0.05. As for the experimental part: A mouse model of ovalbumin (OVA)-induced asthma was used to screen GSNOR inhibitors for efficacy against methacholine (MCh)-induced bronchoconstriction/airway hyper-responsiveness. This is a widely used and well characterized model that presents with an acute, allergic asthma phenotype with similarities to human asthma. Efficacy of GSNOR inhibitors was assessed using a protocol in which GSNOR inhibitors were administered after OVA sensitization and airway challenge, and prior to challenge with MCh. Bronchoconstriction in response to challenge with increasing doses of MCh was assessed using whole body plethysmography (Penh; Buxco). The amount of eosinophil infiltrate into the bronchoaveolar lavage fluid (BALF) was also determined as a measure of lung inflammation. […]
In vivo airway responsiveness to methacholine was measured 24 h after the last OVA challenge in conscious, freely moving, spontaneously breathing mice with whole body plethysmography using a Buxco chamber (Wilmington, N.C.). […] The degree of bronchoconstriction was expressed as enhanced pause (Penh), a calculated dimensionless value, which correlates with the measurement of airway resistance, impedance, and intrapleural pressure in the same mouse. Penh readings were taken and averaged for 4 min. after each nebulization challenge. […]

A further experiment addresses T1, GSNOR (Homo sapiens, UniProt P11766).
T1 construct: made in house; host or cells: E. coli
Kind of experiment: GSNOR assay (inhibition of GSNOR activity, change in 340 nm absorbance). It counts as biochemical. To be noted: 100 mM NaPO4 pH 7.4, 0.240 mM GSNO, 0.300 mM NADH, 0.5 μg/mL GSNO Reductase, 1% DMSO, 25° C. On the procedure:
Various compounds were tested in vitro for their ability to inhibit GSNOR activity.
GSNOR expression and purification is described in Biochemistry 2000, 39, 10720-10729.
GSNOR Fermentation: Pre-cultures were grown from stabs of a GSNOR glycerol stock in 2XYT media containing 100 ug/ml ampicillin after an overnight incubation at 37° C. Cells were then added to fresh 2XYT (4 L) containing ampicillin and grown to an OD (A600) of 0.6-0.9 at 37° C. before induction. GSNOR expression was induced with 0.1% arabinose in an overnight incubation at 20° C.
GSNOR Purification: E. coli cell paste was lysed by nitrogen cavitation and the clarified lysate purified by Ni affinity chromatography on an AKTA FPLC (Amersham Pharmacia). The column was eluted in 20 mM Tris pH 8.0/250 mM NaCl with a 0-500 mM imidazole gradient. Eluted GSNOR fractions containing the Smt-GSNOR fusion were digested overnight with Ulp-1 at 4° C. to remove the affinity tag then re-run on the Ni column under the same conditions. GSNOR was recovered in the flowthrough fraction and for crystallography is further purified by Q-Sepharose and Heparin flowthrough chromatography in 20 mM Tris pH 8.0, 1 mM DTT, 10 uM ZnSO4.
GSNOR Assay: GSNO and enzyme/NADH Solutions are made up fresh each day. The solutions are filtered and allowed to warm to room temperature. GSNO solution: 100 mM NaPO4 (pH 7.4), 0.480 mM GSNO. 396 μL of GSNO Solution is added to a cuvette followed by 8 μL of test compound in DMSO (or DMSO only for full reaction control) and mixed with the pipette tip. Compounds to be tested are made up at a stock concentration of 10 mM in 100% DMSO. 2 fold serial dilutions are done in 100% DMSO. 8 μL of each dilution are added to an assay so that the final concentration of DMSO in the assay is 1%. The concentrations of compounds tested range from 100 to 0.003 μM. Enzyme/NADH solution: 100 mM NaPO4 (pH 7.4), 0.600 mM NADH, 1.0 μg/mL GSNO Reductase. 396 μL of the Enzyme/NADH solution is added to the cuvette to start the reaction. The cuvette is placed in the Cary 3E UV/Visible Spectrophotometer and the change in 340 nm absorbance/min at 25° C. is recorded for 3 minutes. The assays are done in triplicate for each compound concentration. IC50's for each compound are calculated using the standard curve analysis in the Enzyme Kinetics Module of SigmaPlot.
Final assay conditions: 100 mM NaPO4, pH 7.4, 0.240 mM GSNO, 0.300 mM NADH, 0.5 μg/mL GSNO Reductase, and 1% DMSO. Final volume: 800 μL/cuvette.

Where only a bound is given, the exact number is not on record here.

One may read the IC50 as the concentration needed to halve the response being measured.

T1 sequence (P11766 whole entry): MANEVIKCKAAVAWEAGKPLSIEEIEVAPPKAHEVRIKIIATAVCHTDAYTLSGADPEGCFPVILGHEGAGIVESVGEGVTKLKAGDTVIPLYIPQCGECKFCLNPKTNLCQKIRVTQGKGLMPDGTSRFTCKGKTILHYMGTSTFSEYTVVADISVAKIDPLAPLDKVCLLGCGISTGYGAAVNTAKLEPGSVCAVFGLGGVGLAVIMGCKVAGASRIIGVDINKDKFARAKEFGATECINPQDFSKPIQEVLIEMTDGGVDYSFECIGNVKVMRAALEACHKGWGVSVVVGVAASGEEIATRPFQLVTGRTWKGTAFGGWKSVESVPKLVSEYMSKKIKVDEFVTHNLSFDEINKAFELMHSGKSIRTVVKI

`O=C(O)c1ccc(-c2ccc3cc(O)ccc3c2)c(Cl)c1` [Example 1, 3-chloro-4-(6-hydroxynaphthalen-2-yl)benzoic acid]: the “decrease of eosinophil infiltration in BAL, of vehicle control” value in experiment [1] amounted to 44%. At GSNOR, this compound showed an IC50 of less than 50 nM.

For the origin of these results see US9249132B2, “Substituted bicyclic aromatic compounds as S-nitrosoglutathione reductase inhibitors” (Nivalis Therapeutics, Inc., priority 2010, dated 2016).
